In patent US12552824B2, “C-mannoside compounds useful for the treatment of urinary tract infections” (GLAXOSMITHKLINE INTELLECTUAL PROPERTY DEVELOPMENT LIMITED, priority 2018, dated 2026):

Columns and labels:
FimH = biological target: T1, FimH (Escherichia coli, UniProt Q1R2J4); type: cell-based; settings: concentration reducing bacterial agglutination of guinea pig red blood cells by greater than 90%; UTI89 bacteria;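 note: concentration in nM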
T1 construct: endogenous in cells; host or cells: E. coli UTI89 whole bacteria, agglutinating guinea pig red blood cells
Outline: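 Hemagglutination inhibition using uropathogenic E. coli UTI89 and guinea pig red blood cells.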

[1] = Rat pharmacokinetics: IV infusion 1 mg/kg, then PO 5 mg/kg; blood and urine by LC-MS/MS; type: in vivo, Male Wistar Han rats; settings: for % F / bioavailability: oral bioavailability, ratio of dose-normalised AUC PO (5 mg/kg) and IV infusion (1 mg/kg); for Ue % po: percentage of oral dose (5 mg/kg) eliminated unchanged in urine; for bioavailability: male, Wistar Han; for bioavailability / AUC: whole blood; for AUC: area under blood concentration-time profile, PO 5 mg/kg, male Wistar Han rats, n = 3
Excerpt: General Assays for Obtaining AUC Oral h*μm, % F, and Ue % PO Values
Male Wistar Han rats were purchased from Vital River Laboratory Animal Technology Co. Ltd (Beijing, China). The animals were approx. 6-8 weeks old with body weights of 200-300 g on the dosing date. The animals were housed in a 12-hour light/12-hour dark cycle environment and had free access to food and water. All animals were fed prior to dosing. Studies were approved by the Pharmaron Institutional Animal Care and Use Committee (IACUC).
Test article was administered as an intravenous infusion for 1 hour (1 mg/kg) at 5 mL/kg/h. After 48 h, animals received a single oral dose (5 mg/kg, free form) at a dose volume of 10 mL/kg, respectively. Blood samples were collected at various time points after IV infusion and PO administrations. Urine samples were collected at various time points after IV infusion and PO administrations.
Test article was dissolved in DMSO with vortexing and sonification to obtain a stock solution. An aliquot of the stock solution was mixed with 10% HP-β-CD in saline with vortexing to obtain a solution with concentration at 0.2 mg/mL of test article.
Test article was added into 1% Methyl Cellulose with vortexing and sonication to obtain a homogeneous suspension with concentration at 0.5 mg/mL of test article.
For IV infusion (1 mg/kg) administration, blood samples were collected from each animal at 0, 0.25, 0.5, 0.75, 1, 1.08, 1.25, 1.5, 1.75, 2, 3, 5, 8, 12, 24 hour post-dose.
For PO (5 mg/kg) administration, blood samples were collected from each animal at 0, 0.25, 0.5, 1, 1.5, 2, 3, 4, 6, 8, 12, 24 hour post-dose.
Blood samples (50 μL) were collected from each animal via jugular vein. These blood samples were placed into tubes containing K2EDTA. Whole blood was mixed with same volume of water and inverted several times. The blood samples were stored at −75±15° C. until analysis.
For IV infusion (1 mg/kg) administration, urine samples were collected from each animal at 0-4, 4-8, 8-12, 12-24 hour post-dose.
For PO (5 mg/kg) administration, urine samples were collected from each animal at 0-4, 4-8, 8-12, 12-24 hour post-dose.
Urine samples were collected continuously into containers maintained over dry ice at the intervals outlined below and stored at −80° C. prior to analysis.
55 μL of standards, 55 μL of QC samples or 55 μL of unknown samples (50 μL of blood or urine with 5 μL 50% acetonitrile) were mixed to 200 μL of acetonitrile containing IS (dexamethasone) to precipitate proteins. Then the samples were vortexed for 30 sec. After centrifugation at 4° C., 4700 rpm for 30 min, and 5 μL of the supernatant was injected into the LC-MS/MS system for quantitative analysis.
Test article blood and urine concentrations for each animal following IV infusion at 1 mg/kg and PO at 5 mg/kg were used to calculate pharmacokinetic parameters by employing a non-compartmental analysis (Phoenix™ WinNonlin® 7.0). The linear trapezoidal algorithm was used for AUC calculation.

Row | Structure (SMILES) | HAI titer EC > 90 (FimH) | % F [1] | Ue % po [1] | bioavailability [1] | AUC [1]
1 | COc1cc(-c2ccc([C@@H](O)[C@H]3O[C@H](CO)[C@@H](O)[C@H](O)[C@@H]3O)c(C)c2)cc(C(F)(F)F)c1 [Example 61] | “++++” (<50 “++++”) | “++” (10 <= x <= 30%) | “+” (<0.5%) |  | 
2 | Cc1cc(-c2cc(F)c(F)c(Cl)c2)ccc1[C@@H](O)[C@H]1O[C@H](CO)[C@@H](O)[C@H](O)[C@@H]1O [Example 73] | “++++” (<50 “++++”) | “++” (10 <= x <= 30%) | “++” (0.5 <= x <= 5%) |  | 
3 | Cc1cc(-c2cc(F)c(F)c(F)c2)ccc1[C@@H](O)[C@H]1O[C@H](CO)[C@@H](O)[C@H](O)[C@@H]1O [Example 7, (2R,3S,4S,5S,6R)-2-((R)-Hydroxy(3′,4′,5′-trifluoro-3-methyl-[1,1′-biphenyl]-4-yl)methyl)-6-(hydroxymethyl)tetrahydro-2H-pyran-3,4,5-triol] | “++++” (<50 “++++”) |  | “+++” (>5%) | > 30% | > 1 µM·h
4 | Cc1cc(-c2cc(F)c(C(F)(F)F)c(F)c2)ccc1[C@@H](O)[C@H]1O[C@H](CO)[C@@H](O)[C@H](O)[C@@H]1O [Example 64] | “++++” (<50 “++++”) | “++” (10 <= x <= 30%) | “++” (0.5 <= x <= 5%) |  | 
5 | Cc1cc(-c2ccc(C(F)(F)F)c(F)c2)ccc1[C@@H](O)[C@H]1O[C@H](CO)[C@@H](O)[C@H](O)[C@@H]1O [Example 5, (2R,3S,4S,5S,6R)-2-((R)-(3′-Fluoro-3-methyl-4′-(trifluoromethyl)-[1,1′-biphenyl]-4-yl)(hydroxy)methyl)-6-(hydroxymethyl)tetrahydro-2H-pyran-3,4,5-triol] | “++++” (<50 “++++”) |  | “++” (0.5 <= x <= 5%) | 10 to 30% | 0.5 to 1 µM·h
6 | Cc1cc(-c2cc(F)cc(F)c2)ccc1[C@@H](O)[C@H]1O[C@H](CO)[C@@H](O)[C@H](O)[C@@H]1O [Example 9, (2R,3S,4S,5S,6R)-2-((R)-(3′,5′-Difluoro-3-methyl-[1,1′-biphenyl]-4-yl)(hydroxy)methyl)-6-(hydroxymethyl)tetrahydro-2H-pyran-3,4,5-triol] | “++++” (<50 “++++”) |  | “+++” (>5%) | > 30% | 0.5 to 1 µM·h
